Measurements published in US11957699B2, “Composition comprising punicalagin for inhibiting PAR2 activity” (INDUSTRY-ACADEMIC COOPERATION FOUNDATION, YONSEI UNIVERSITY, priority 2018, dated 2024).

Assays:
PAR2 [1] = molecular target: T1, PAR2 (Homo sapiens, UniProt P55085); assay: Intracellular calcium increase by house dust mite extract and PAR2-AP in primary cultured conjunctival epithelial cells; format: cell-based; parameters: endogenous in cells; details: 10 μM, 10 μg/mL HDM extract, 100 μM PAR2-AP
T1 sequence (P55085 26-397): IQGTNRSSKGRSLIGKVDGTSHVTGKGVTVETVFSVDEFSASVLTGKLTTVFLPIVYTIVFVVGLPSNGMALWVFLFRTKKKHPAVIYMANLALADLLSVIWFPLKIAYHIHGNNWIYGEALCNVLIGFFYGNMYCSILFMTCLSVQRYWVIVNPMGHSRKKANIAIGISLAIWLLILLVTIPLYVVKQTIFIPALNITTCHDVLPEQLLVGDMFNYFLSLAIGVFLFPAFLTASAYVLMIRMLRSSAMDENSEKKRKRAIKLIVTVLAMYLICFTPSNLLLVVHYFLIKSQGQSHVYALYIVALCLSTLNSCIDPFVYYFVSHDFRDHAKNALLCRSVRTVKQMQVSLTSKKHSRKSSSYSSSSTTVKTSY
Method: In order to determine whether punicalagin has an effect of inhibiting cytokine secretion by house dust mites (HDM), after removing a culture medium of conjunctival epithelial cells that were primary cultured and differentiated in a transwell, 300 μL of the Flou4-NW dye mixture was added, and then, it was stabilized for 1 hour such that a Ca^2+ dye was loaded into the cells while blocking the light. Next, punicalagin was pretreated by concentration (0, 10, and 30 μM) for 10 minutes, and then, it was treated with a 10 μg/mL house dust mite extract (HDM extract). Afterwards, the concentration change of calcium ions (Ca^2+) was measured for 3 minutes at 1-second intervals, and 100 μM PAR2-AP was treated to measure whether punicalagin inhibited the concentration change of intracellular calcium ions by PAR2 receptor activation.

[2] = tested on: ICR mice with atopic dermatitis induced by DNFB; assay: Atopic dermatitis and pruritus induced by DNFB in mice; format: in vivo; details: 3 mg/kg intraperitoneally daily
Method: In 12-week-old ICR mice, it was confirmed whether punicalagin inhibits pruritus caused by atopic dermatitis induced by 1-fluoro-2,4-dinitrobenzene (DNFB).
Specifically, as shown in panel A of FIG. 19, punicalagin (PG) was dissolved in physiological saline and intraperitoneally injected at 3 mg/kg daily for 17 days, and atopic dermatitis and pruritus were induced by treating 0.15% DNFB dissolved in acetone with a cotton swab on the back of the mice on the 10th, 13th, 20th, and 27th days.

[3] = tested on: SD rats with colitis induced by TNBS; assay: Colitis induced by trinitrobenzene sulfonic acid (TNBS) in rats; format: in vivo; details: 1, 3 and 10 mg/kg intraperitoneally for 3 days
Method: Specifically, 80 mg/kg TNBS was diluted in 50% ethanol and injected into the anus of rats, and punicalagin (1, 3, and 10 mg/kg) was intraperitoneally injected for 3 days. As control groups, a group which was intraperitoneally injected with PBS and treated with 50% ethanol only (n=3) and a group which was intraperitoneally injected with PBS and was treated only with TNBS (n=3) were established, and weight change was measured. After 3 days, the rats of each group were sacrificed, the colon was extracted to measure the length, and the spleen was extracted and weighed.

[4] = rats, 6% punicalagin diet for 37 days; cited from earlier work
PAR2 [5] = molecular target: T1, PAR2; assay: Intracellular calcium increase by trypsin (PAR2 receptor activation) in HaCaT keratinocytes; format: cell-based; parameters: endogenous in cells; host or cells: HaCaT keratinocytes
Method: After keratinocytes (HaCaT) were cultured for 48 hours in a 96-well micro plate with the DMEM culture medium, the culture medium was removed, and then, 100 μL of the Flou4-NW dye mixture was added. While blocking the light, it was stabilized for 1 hour such that a calcium ion dye (Ca^2+ dye) was loaded into the cells. 100 μM punicalagin was treated, and the concentration change of intracellular calcium ions was measured for 5 minutes (panel A of FIG. 17). Next, punicalin (0, 1, 3, 10, 20, 30, 100, and 300 μM) by concentration (panel B of FIG. 17) or punicalagin (0, 1, 3, 5, 10, 20, 30, and 100 μM) by concentration (panel C of FIG. 17) was treated for 10 minutes, and then, each well was treated with 0.1 μM trypsin to measure the concentration change of intracellular calcium ions according to PAR2 receptor activation.

[6] = tested on: NZB/W F1 mice with lupus nephritis; assay: Lupus nephritis mouse model (NZB/W F1); format: in vivo
Method: With NZB/W F1 mice that were purchased from Central Lab. Animal Inc., the effect of punicalagin on symptoms of lupus nephritis was confirmed.
As control groups, there were two groups including a nephritis-induced group that was injected only with physiological saline and a nephritis-induced group that was injected with 7 mg/kg methylprednisolone (MPL), which is a standard therapeutic agent for lupus nephritis, and proteinuria was measured twice a week (panel A of FIG. 9).
Next, the protective effect of punicalagin on renal structural damage against lupus nephritis was histologically evaluated. To this end, kidneys were extracted and PAS stained in 30-week-old mice, and the degree of damage to glomeruli, ducts, and blood vessels was histologically quantified. In addition, when lupus nephritis was induced, the expressions of IgG and C3, which are autoantibodies mostly expressed in kidney tissues, were fluorescence-stained and observed under a fluorescence microscope.
In order to determine the mechanism of the alleviating effect of punicalagin on lupus nephritis, the spleen was extracted from 30-week-old mice, the spleen weight and the number of splenocytes were measured, and changes in T cells in the spleen were analyzed by FACS.
After serum was isolated from 30-week-old mice, it was analyzed by the enzyme immunoassay to determine whether punicalagin inhibited or increased cytokines that were expressed by lupus nephritis.
In order to determine the alleviating effect of punicalagin on lupus nephritis, serum was isolated from 30-week-old mice, and the expression of B cell autoantibodies was analyzed by the enzyme immunoassay.
In order to determine the alleviation mechanism of punicalagin against lupus nephritis, the expressions of VCAM-1 and ICAM-1 were analyzed by immunohistochemical staining in renal tissues of 30-week-old mice.

[7] = 3 mg/kg, 1 mg/kg, and 0.3 mg/kg
[8] = 3 mg/kg, 1 mg/kg, and 0.3 mg/kg, similar to methylprednisolone

O=CC1OC(=O)c2cc(O)c(O)c(O)c2-c2c(cc(O)c(O)c2O)C(=O)OC1C1OC(=O)c2cc(O)c(O)c(O)c2-c2c(O)c(O)c3oc(=O)c4c(c(O)c(O)c5oc(=O)c2c3c54)-c2c(cc(O)c(O)c2O)C(=O)OCC1O (stereo not shown) [punicalagin, 1,2,3,11,12,13-hexahydroxy-5,10-dioxo-8-[3,4,5,11,17,18,19,22,23,34,35-undecahydroxy-8,14,26,31-tetraoxo-9,13,25,32-tetraoxaheptacyclo[25.8.0.0^2,7.0^15,20.0^21,30.0^24,29.0^28,33]pentatnaconta-1(35),2,4,6,15,17,19,21,23,27,29,33-dodecaen-10-yl]-5,7,8,10-tetrahydrodibenzo[f,h][1,4]dioxecin-7-carbaldehyde]
concentration increases of intracellular calcium ions by house dust mites and PAR2-AP (PAR2 [1]): all inhibited
suppression of the number of scratches caused by DNFB, measured for 30 minutes [2]: about 60%
atopic dermatitis (skin inflammation) ([2]; 0.15% DNFB): significantly reduced
colon tissue damage caused by TNBS [3]: inhibited colon tissue damage caused by TNBS in a concentration-dependent manner
concentrations of inflammatory cytokines (INF-γ, IL-2, IL-4, IL-6, IL-β, TNF-α, IL-1β, etc.) increased by TNBS [3]: significantly decreased
colon length reduction by TNBS ([3]; concentration-dependent): significantly inhibited
weight increase of the spleen by TNBS ([3]; concentration-dependent): significantly inhibited
weight loss by TNBS ([3]; concentration-dependent): significantly inhibited
toxicity [4]: no toxicity
effect on the concentration of intracellular calcium ions in keratinocytes (without trypsin) (PAR2 [5]; 100 μM, 5 minutes): no effect
inhibition of PAR2 receptor activity by trypsin (PAR2 [5]; HaCaT, 0.1 μM trypsin, 10 minutes pretreatment): inhibited PAR2 receptor activity by trypsin in a concentration-dependent manner
IC50 (PAR2 [5]; HaCaT, 0.1 μM trypsin, read-out: IC50, inhibition of the PAR2 receptor (calcium increase by trypsin)): 5.24 µM
strength of PAR2 receptor inhibition compared to punicalin (PAR2 [5]; HaCaT, trypsin): ≥ 3.7 times
kidney weight ([6]; 1 mg/kg): reduced
serum expressions of anti-dsDNA, IgG1, IgG2a, IgG2b, and IgG3 ([6]; 1 mg/kg and 10 mg/kg): decreased
expression of regulatory T cells (Treg) ([6]; 3 mg/kg): significantly increased
number of CD4 T cells in the spleen and expressions of TH1, TH2, and TH17 T cells (FACS) ([6]; 3 mg/kg and 1 mg/kg): significantly reduced
lower proteinuria compared to the nephritis-induced group ([6]; 3 mg/kg and 1 mg/kg, at the level of 7 mg/kg methylprednisolone): 60%
serum creatinine concentration ([6]; 3 mg/kg group): lowest
degree of damage to glomeruli, ducts, and blood vessels (PAS staining) ([6]; 3 mg/kg, 1 mg/kg, and 0.1 mg/kg, 30-week-old mice, similar to methylprednisolone): alleviated
IgG and C3 depositions in kidney tissue (fluorescence) [6, 7]: significantly reduced
expressions of VCAM-1 and ICAM-1 in kidney tissues (immunohistochemical staining) [6, 7]: significantly reduced
serum expressions of IL-10 and TGF-β1 [6, 7]: increased
total number of splenocytes [6, 7]: not increased
serum expressions of IFN-γ, IL-17A, and IL-6 [6, 8]: reduced
weight of the spleen [6, 8]: not increased
mortality from 23 weeks to 30 weeks ([6]; 3, 1 and 0.3 mg/kg intraperitoneally three times a week): none of the subjects died
serum creatinine concentration vs nephritis-induced group ([6]; punicalagin-treated groups (3, 1, 0.3 mg/kg)): lower
